According to ChEMBL document CHEMBL1201862, “PubChem BioAssay data set” (2004):
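Dose response: 5 concentrations. Exposure: 48 h. Format: 96-well plates. Endpoint: linear interpolation; highest concentration if not reached. The concentration for 50% growth inhibition is given as GI50.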 Calls of active or inactive are those of the source. Rule as the data show it: active = GI50 up to about 1.1 µM and inactive = higher. Non-standard residues stand in square brackets, D forms with d. Residues, ends and D or L forms follow the SMILES beside them. *: point of attachment. Cbz = O=C(OCc1ccccc1)*; Boc = CC(C)(C)OC(=O)*; Aib = CC(C)(N)C(=O)O; OBn = c1ccc(CO*)cc1; OtBu = CC(C)(C)O*; βAla = NCCC(=O)O

What was measured:
Test in all cases: NCI anticancer screen, dose series, 48 h
RPMI-8226 = tested on: RPMI-8226
HOP-62 = tested on: HOP-62
SW-620 = tested on: SW-620
ACHN = tested on: ACHN
OVCAR-3 = tested on: OVCAR-3
A498 = tested on: A498
NCI-H226 = tested on: NCI-H226
OVCAR-4 = tested on: OVCAR-4
MOLT-4 = tested on: MOLT-4
LOX IMVI = tested on: LOX IMVI
OVCAR-5 = tested on: OVCAR-5
RXF 393 = tested on: RXF 393
CAKI-1 = tested on: CAKI-1
A549 = tested on: A549
SF-295 = tested on: SF-295
SN12C = tested on: SN12C
T47D = tested on: T47D
SF-268 = tested on: SF-268
COLO 205 = tested on: COLO 205
786-0 = tested on: 786-0

Measured: GI50

COC(=O)C1(Cc2ccc3c(c2)CCC3)Cc2cc3c(cc2C1=O)CCC3 (stereo not given)
inactive: RPMI-8226 8.02 µM | HOP-62 > 46.5 µM | SW-620 16.9 µM | ACHN 37.2 µM | OVCAR-3 44.6 µM | A498 10.7 µM | NCI-H226 39.2 µM | OVCAR-4 18.7 µM | MOLT-4 16.5 µM | LOX IMVI 25.1 µM | OVCAR-5 > 46.5 µM | RXF 393 29.4 µM | CAKI-1 6.73 µM | A549 18.2 µM | SF-295 35.6 µM | SN12C 26.9 µM | T47D 10.8 µM | SF-268 > 46.5 µM | COLO 205 15.4 µM | 786-0 > 46.5 µM

CC1=NN2C(=N)/C(=C/c3ccc(F)cc3)C(=O)N=C2S1
inactive: RPMI-8226 > 100 µM | HOP-62 > 100 µM | SW-620 > 100 µM | ACHN > 100 µM | OVCAR-3 > 100 µM | A498 > 100 µM | NCI-H226 > 100 µM | OVCAR-4 > 100 µM | MOLT-4 > 100 µM | LOX IMVI > 100 µM | OVCAR-5 > 100 µM | RXF 393 > 100 µM | CAKI-1 > 100 µM | A549 > 100 µM | SF-295 > 100 µM | SN12C > 100 µM | T47D > 100 µM | SF-268 > 100 µM | COLO 205 > 100 µM | 786-0 > 100 µM

COC(=O)[C@]12CC[C@H]3CC[C@H]([C@H]31)[C@H](c1ccccc1)N2
inactive: RPMI-8226 14.2 µM | HOP-62 17.4 µM | SW-620 22.2 µM | ACHN 17.6 µM | OVCAR-3 15.2 µM | A498 17.6 µM | NCI-H226 15.4 µM | OVCAR-4 15.2 µM | MOLT-4 12.9 µM | LOX IMVI 17.3 µM | OVCAR-5 17.3 µM | RXF 393 14.2 µM | CAKI-1 17.7 µM | A549 17.7 µM | SF-295 16.3 µM | SN12C 15.7 µM | T47D 16.4 µM | SF-268 19.6 µM | COLO 205 16.5 µM | 786-0 15.7 µM

Nc1c([N+](=O)[O-])cc2c3c(cccc13)CC2
inactive: RPMI-8226 55.7 µM | HOP-62 74.6 µM | SW-620 82.2 µM | ACHN > 100 µM | OVCAR-3 > 100 µM | A498 33.7 µM | NCI-H226 > 100 µM | OVCAR-4 47.8 µM | MOLT-4 23.6 µM | LOX IMVI 65.2 µM | OVCAR-5 > 100 µM | RXF 393 23.1 µM | CAKI-1 > 100 µM | A549 78.5 µM | SF-295 91.6 µM | SN12C 62.8 µM | T47D 30.1 µM | SF-268 83.6 µM | COLO 205 64.1 µM | 786-0 57.4 µM

CCOC(=O)C(NC(=O)c1ccccc1)(Nc1ccc(Cl)cc1C(F)(F)F)C(F)(F)F (stereo not given)
inactive: RPMI-8226 2.96 µM | HOP-62 3.91 µM | SW-620 2.88 µM | ACHN 9.42 µM | OVCAR-3 3.57 µM | A498 6.05 µM | NCI-H226 16.7 µM | OVCAR-4 9.77 µM | MOLT-4 2.55 µM | LOX IMVI 5.33 µM | OVCAR-5 13.5 µM | RXF 393 3.44 µM | CAKI-1 7.5 µM | A549 4.59 µM | SF-295 4.03 µM | SN12C 4.45 µM | T47D 4.39 µM | SF-268 > 37.4 µM | COLO 205 4.58 µM | 786-0 8.95 µM

C[C@@H](C[C@H]1OC(C)(C)O[C@@H]1C(C)(C)O)[C@H]1CC=C2[C@]3(C)[C@H](O)C[C@H]4C(C)(C)[C@H](O)CC[C@]4(C)[C@H]3CC[C@]21C
inactive: RPMI-8226 4.03 µM | HOP-62 12.8 µM | SW-620 10.7 µM | ACHN 8.15 µM | OVCAR-3 7.91 µM | A498 10.7 µM | NCI-H226 7.62 µM | OVCAR-4 8.51 µM | MOLT-4 4.52 µM | LOX IMVI 8.13 µM | OVCAR-5 8.69 µM | RXF 393 6.44 µM | CAKI-1 10.8 µM | A549 5.86 µM | SF-295 9.14 µM | SN12C 3.32 µM | T47D 7.73 µM | SF-268 10.5 µM | COLO 205 5.26 µM | 786-0 9.73 µM

CC(C)(C)OC(=O)CC(NC(=O)OC(C)(C)C)C(=O)NC(CCCCNC(=O)OCc1ccccc1)C(=O)NC(C)(C)C(=O)NCCC(=O)OCc1ccccc1 (stereo not given) (Boc-D(OtBu)K(Cbz)[Aib][βAla]-OBn; configuration not given here)
inactive: RPMI-8226 > 100 µM | HOP-62 > 100 µM | SW-620 > 100 µM | ACHN > 100 µM | OVCAR-3 > 100 µM | A498 86.3 µM | NCI-H226 > 100 µM | OVCAR-4 > 100 µM | MOLT-4 > 100 µM | LOX IMVI > 100 µM | OVCAR-5 > 100 µM | RXF 393 > 100 µM | CAKI-1 > 100 µM | A549 > 100 µM | SF-295 > 100 µM | SN12C > 100 µM | T47D > 100 µM | SF-268 > 100 µM | COLO 205 > 100 µM | 786-0 > 100 µM
